Measured values: patent publication US9987379B2, “Molecular probes for imaging of myelin” (Case Western Reserve University, priority 2008, dated 2018)
“Also recorded” adds a separate entry of the source.

Tests used:
[1] = tested on: myelin in corpus callosum; experiment: In vitro CMC tissue staining of mouse brain sections (wild-type and Plp-Akt-DD); assay type: binding
Experimental: Free floating sections were incubated in 1% H2O2/Triton-100 for 10 min, then incubated in a solution of test compounds (100 μM) in 1% DMSO/PBS for 30 min at room temperature. The sections were washed three times with PBS before cover-slipping with fluorescence mounting medium (Vectashield, Vector laboratories). […] The fluorescent nature of these coumarin derivatives allows for staining of mouse brain tissue sections in a way similar to other conventional myelin stains. The tissue staining represents a direct approach to evaluate the binding specificity of the test compounds for myelin sheaths. The myelinated corpus callosum region was then examined by fluorescent microscopy. […] For correlation, the MBP immunostaining was also conducted in adjacent sections (FIG. 10E).

Log P of CMC = assay type: physicochemical; conditions: method not stated
[2] = tested on: myelin sheaths of the corpus callosum and cerebellum; experiment: In situ CMC staining of myelin after i.v. injection; assay type: in vivo, mouse; conditions: 25 mg/kg tail vein, 1 hr post injection, wild-type and Plp-Akt-DD mice
Experimental: In this experiment, 25 mg/kg of CMC was administered through i.v. injection in the tail vein of 2-month old wild-type mice and Plp-Akt-DD mice Animals were sacrificed at 1 hr after injection through heart puncture. The brains were removed and fixed in 4% PFA. The brains were then sectioned and fluorescent images were directly acquired on a Zeiss Axiovert 200M inverted microscope (2.5× objective) with a AxioCam digital camera (Carl Zeiss Microlmagibg, Inc, Thornwood, N.Y.).
Following our in vitro studies, we investigated the ability of CMC to monitor myelin contents ex vivo in the mouse brain. A dose of 0.5 mg CMC (25 mg/kg) was injected via the tail vein into wild-type mice and Plp-Akt-DD mice. One hr postinjection, mice were perfused and brains were removed and sectioned as described above. CMC staining of myelin was then directly examined under fluorescent microscopy.

[3] = tested on: myelinated corpus callosum and cerebellum; experiment: In vitro autoradiography of mouse brain sections; assay type: binding; conditions: sagittal mouse brain sections, 1 hr incubation
Experimental: To further evaluate the binding specificity of [^125I]9 to myelin sheaths in the brain, in vitro autoradiography was carried out in mice.
Mouse brain sections were incubated in [^125I]9 (20% Ethanol, 4,380,000 cpm/16 ml) for 1 hr. The slides were quickly washed with PBS buffer (10 mM, pH 7.0) 3 times, saturated Li2CO3 in 40% ethanol (2×3 mM), 40% ethanol (2 mM) and H2O (30 sec). After drying by air, the slides were put in a cassette and exposed to film for 44 hrs to obtain images.

[4] = Brain uptake / permeability across the blood-brain barrier in mice; assay type: in vivo, mouse
Experimental: Encouraged by the aforementioned studies, we further evaluated the permeability of [^125I]9 across the blood brain barrier. Following bolus tail vein injection of [^125I]9 (0.2 ml, 0.185 MBq), the radioactivity concentration of [^125I]9 in the brain was determined at 2, 30, and 60 min post injection. […] The initial brain entry was 2.29±0.66% ID/g at 2 min post injection. At 30 min post injection, the brain radioactivity concentration reached its peak level (2.65±0.27% ID/g). […] Retention of [^125I]9 at later time points was likely due to binding to myelin membranes as indicated by aforementioned in vitro and in situ staining studies.
While under anesthesia, 0.1 mL of a saline solution (consisting of saline (2 mL, 9 mg/mL), propylene glycol (2 mL), ethanol (0.7 mL) and HCl (0.3 mL, […]))^25 containing 5 μCi of radioactive tracer, was injected into the tail veins of mice (Swiss-Webster, 2 month old, 2 mice per group). The mice were sacrificed by heart puncture at 2 mM, 30 mM, 60 min and 120 mM post injection under anesthesia. Brains were rapidly removed and weighed, and the brain uptake was expressed as percentage of injection dose per gram organ (% ID/g), which was calculated by a ratio of per gram tissue counts to counts of 1% of the initial dose (100 times diluted aliquots of the injected radioligand) measured at the same time.

[5] = Stability of [125I]9 monitored by HPLC; assay type: physicochemical
Description: The radiochemical identity of [^125I]9 was verified by co-injection with cold standard Compound 9. Following HPLC purification, [^125I]9 was obtained in 70% radiochemical yield with a radiochemical purity of >98% and a specific activity of 80 TBq/mmol As monitored by HPLC, [^125I]9 was found stable to be kept at room temperature for up to 8 hrs and in the refrigerator for up to 2 months.

[6] = Octanol-water partition coefficient measurement; assay type: physicochemical
Description: The partition coefficient (PC) is an important parameter of brain permeability. PC values ranging 1.0˜3.5 often show good initial brain entry following i.v. injection (Wu, C.; Pike, V. W.; Wang, Y. Amyloid imaging: from benchtop to bedside. Curr Top Dev Biol 2005, 70, 171-213; Levin, V. A. Relationship of octanol/water partition coefficient and molecular weight to rat brain capillary permeability. J Med Chem 1980, 23, 682-684; Dishino, D. D.; Welch, M. J.; Kilbourn, M. R.; Raichle, M. E. Relationship between lipophilicity and brain extraction of C-11-labeled radiopharmaceuticals. J Nucl Med 1983, 24, 1030-1038. For this reason, we radioiodinated Compound 9 and quantitatively determined the lipophilicity of [^125I]9. Based on the conventional octanol-water partition measurement, the log Poct of [^125I]9 was determined as 2.5±0.1, which falls in the range for optimal brain entry.
Partition coefficients (PC) were measured by mixing the radioligands with 3 g (3.65 mL) 1-octanol and 3 g (3.0 mL) buffer (pH 7.40, 0.1 M phosphate) in a test tube. The test tube was vortexed for 3 mM at room temperature and then centrifuged (3500 rpm, 5 mM) 1 ml of samples from the 1-octanol and buffer layers were assayed for radioactivity content in a well γcounter. The partition coefficient was determined by calculating the ratio of cpm/g of 1-octanol to that of the buffer. […]

| logP (Log P of CMC) | Structure (SMILES) | staining contrast among the coumarin derivatives screened ([1]; 100 uM, mouse brain sections) | in vitro staining of myelin ([1]; 100 uM, wild-type mouse brain sections) | fluorescent intensity in Plp-Akt-DD mouse brain relative to wild-type mouse brain ([1]; corpus callosum, hypermyelinated Plp-Akt-DD vs wild-type) [fold] | brain entry and in situ labeling of myelin [2] | autoradiographic labeling of brain sections [3] | brain radioactivity concentration ([4]; 2 min post tail vein injection) [% ID/g] | brain radioactivity concentration ([4]; 30 min post tail vein injection) [% ID/g] | brain radioactivity concentration ([4]; 60 min post tail vein injection) [% ID/g] | brain radioactivity concentration ([4]; 120 min post tail vein injection) [% ID/g] | time found stable in the refrigerator ([5]; in the refrigerator) | time found stable at room temperature ([5]; room temperature) | log Poct [6] |
| --- | --- | --- | --- | --- | --- | --- | --- | --- | --- | --- | --- | --- | --- |
| 2.68 | Nc1ccc(-c2cc3ccccc3oc2=O)cc1 [CMC, 3-(4-aminophenyl)-2H-chromen-2-one] | highest contrast | selectively stained intact myelin tracks | 1.27 | highly permeable across the BBB and selectively localizes in myelinated regions; also recorded: entered the brain and selectively labeled myelin sheaths of the corpus callosum and cerebellum |  |  |  |  |  |  |  |  |
|  | Nc1ccc(C=Cc2ccc([125I])cc2)cc1 [[^125I]9, 4-[2-(4-[^125I]Iodo-phenyl)-vinyl]-phenylamine] |  |  |  |  | distinct labeling of myelinated regions | 2.29±0.66 | 2.65±0.27 | 2.05 ± 0.13 | 1.12±0.23 | up to 2 months | up to 8 hrs | 2.5±0.1 |
